Assay results published in ChEMBL document CHEMBL3046485, “Photodynamic activities of protoporphyrin IX and its dopamine conjugate against cancer and bacterial cell viability” (2012).
Converted amounts (≈) assume the structure as drawn. Blank lines part the entries; values can stand above or below the compound they belong to. The source made the active and inactive calls. No cut-off for these calls is given here.

Assays:
HeLa [1] = test: Cytotoxicity against Homo sapiens (human) HeLa cells compound photoirradiated for 20 min followed by 24 hr incubation by LDH release assay; type: functional, cell-based
HeLa [2] = test: Cytotoxicity against Homo sapiens (human) HeLa cells at 30 uM compound photoirradiated for 20 min followed by 24 hr incubation by LDH release assay; type: functional, cell-based
SH-SY5Y [3] = test: Cytotoxicity against Homo sapiens (human) SH-SY5Y cells at 30 uM compound photoirradiated for 20 min followed by 24 hr incubation by LDH release assay; type: functional, cell-based
SH-SY5Y [4] = test: Antiproliferative activity against Homo sapiens (human) SH-SY5Y cells at 5 uM compound photoirradiated for 20 min followed by 24 hr incubation by WST-1 assay; type: functional, cell-based
SH-SY5Y [5] = test: Cytotoxicity against Homo sapiens (human) SH-SY5Y cells at 1 to 30 uM after 24 hr by LDH release assay; type: functional, cell-based
Bacillus subtilis [6] = test: Antibacterial activity against Bacillus subtilis ATCC 6633 compound photoirradiated for 20 min followed by 24 hr incubation by two-fold serial dilution method; type: functional; settings: ATCC 6633, light or radiation study
U-87MG ATCC [7] = test: Antiproliferative activity against Homo sapiens (human) U87 cells at 5 uM compound photoirradiated for 20 min followed by 24 hr incubation by WST-1 assay; type: functional, cell-based
Bacillus subtilis [8] = test: Antibacterial activity against Bacillus subtilis ATCC 6633 after 24 hr by two-fold serial dilution method; type: functional; settings: ATCC 6633, 24 h
U-87MG ATCC [9] = test: Antiproliferative activity against Homo sapiens (human) U87 cells at 5 uM after 24 hr by WST-1 assay; type: functional, cell-based
U-87MG ATCC [10] = test: Cytotoxicity against Homo sapiens (human) U87 cells compound photoirradiated for 20 min followed by 24 hr incubation by LDH release assay; type: functional, cell-based
SH-SY5Y [11] = test: Antiproliferative activity against Homo sapiens (human) SH-SY5Y cells at 5 uM after 24 hr by WST-1 assay; type: functional, cell-based
HeLa [12] = test: Antiproliferative activity against Homo sapiens (human) HeLa cells at 5 uM after 24 hr by WST-1 assay; type: functional, cell-based
Pseudomonas aeruginosa [13] = test: Bacteriostatic activity against Pseudomonas aeruginosa ATCC 27853 after 24 hr by two-fold serial dilution method; type: functional, organism-based
Bacillus subtilis [14] = test: Antibacterial activity against Bacillus subtilis ATCC 6633 at 16 ug/ml after 24 hr by two-fold serial dilution method; type: functional, organism-based
HeLa [15] = test: Antiproliferative activity against Homo sapiens (human) HeLa cells at 5 uM compound photoirradiated for 20 min followed by 24 hr incubation by WST-1 assay; type: functional, cell-based
Pseudomonas aeruginosa [16] = test: Antibacterial activity against Pseudomonas aeruginosa ATCC 27853 after 24 hr by two-fold serial dilution method; type: functional; settings: ATCC 27853, 24 h
Escherichia coli [17] = test: Antibacterial activity against Escherichia coli ATCC 25922 compound photoirradiated for 20 min followed by 24 hr incubation by two-fold serial dilution method; type: functional; settings: ATCC 25922, light or radiation study
Bacillus subtilis [18] = test: Antibacterial activity against Bacillus subtilis ATCC 6633 at 16 ug/ml compound photoirradiated for 20 min followed by 24 hr incubation by two-fold serial dilution method; type: functional, organism-based
U-87MG ATCC [19] = test: Cytotoxicity against Homo sapiens (human) U87 cells at 1 to 30 uM after 24 hr by LDH release assay; type: functional, cell-based
Pseudomonas aeruginosa [20] = test: Antibacterial activity against Pseudomonas aeruginosa ATCC 27853 compound photoirradiated for 20 min followed by 24 hr incubation by two-fold serial dilution method; type: functional; settings: ATCC 27853, light or radiation study
Escherichia coli [21] = test: Antibacterial activity against Escherichia coli ATCC 25922 after 24 hr by two-fold serial dilution method; type: functional; settings: ATCC 25922, 24 h
SH-SY5Y [22] = test: Cytotoxicity against Homo sapiens (human) SH-SY5Y cells compound photoirradiated for 20 min followed by 24 hr incubation by LDH release assay; type: functional, cell-based
U-87MG ATCC [23] = test: Cytotoxicity against Homo sapiens (human) U87 cells at 30 uM compound photoirradiated for 20 min followed by 24 hr incubation by LDH release assay; type: functional, cell-based
HeLa [24] = test: Cytotoxicity against Homo sapiens (human) HeLa cells compound at 1 to 30 uM after 24 hr by LDH release assay; type: functional, cell-based

- MIC (Bacillus subtilis [6]): 80 µg/mL (≈ 96 µM)
- MIC (Bacillus subtilis [8]): 100 µg/mL (≈ 120 µM)
- MIC (Pseudomonas aeruginosa [16]): 128 µg/mL (≈ 154 µM)
- MIC (Escherichia coli [17]): 128 µg/mL (≈ 154 µM)
- MIC (Pseudomonas aeruginosa [20]): 128 µg/mL (≈ 154 µM)
- MIC (Escherichia coli [21]): 128 µg/mL (≈ 154 µM)
Compound: C=Cc1c(C)c2cc3[nH]c(cc4nc(cc5nc(cc1[nH]2)C(C)=C5CCC(=O)NCCc1ccc(O)c(O)c1)C(CCC(=O)NCCc1ccc(O)c(O)c1)=C4C)c(C)c3C=C
- Activity (HeLa [1]): Dose-dependent effect
- Activity (HeLa [2]): inactive
- Activity (SH-SY5Y [3]): inactive
- Activity (SH-SY5Y [4]): Active
- Activity (SH-SY5Y [5]): inactive
- Activity (U-87MG ATCC [7]): Active
- Activity (U-87MG ATCC [9]): inactive
- Activity (U-87MG ATCC [10]): Dose-dependent effect
- Activity (SH-SY5Y [11]): inactive
- Activity (HeLa [12]): inactive
- Activity (Pseudomonas aeruginosa [13]): Active
- Activity (Bacillus subtilis [14]): Active
- Activity (HeLa [15]): Active
- Activity (Bacillus subtilis [18]): inactive
- Activity (U-87MG ATCC [19]): inactive
- Activity (SH-SY5Y [22]): Dose-dependent effect
- Activity (U-87MG ATCC [23]): inactive
- Activity (HeLa [24]): inactive

Compound: CC1(C)S[C@@H]2[C@H](NC(=O)[C@H](N)c3ccccc3)C(=O)N2[C@H]1C(=O)O [AMPICILLIN]
- MIC (Bacillus subtilis [8]): > 256 µg/mL
- MIC (Pseudomonas aeruginosa [16]): 128 µg/mL (≈ 366 µM)
- MIC (Escherichia coli [21]): > 256 µg/mL

Compound: CC[C@H]1OC(=O)[C@H](C)[C@@H](O[C@H]2C[C@@](C)(OC)[C@@H](O)[C@H](C)O2)[C@H](C)[C@@H](O[C@@H]2O[C@H](C)C[C@H](N(C)C)[C@H]2O)[C@](C)(O)C[C@@H](C)C(=O)[C@H](C)[C@@H](O)[C@]1(C)O [ERYTHROMYCIN]
- MIC (Bacillus subtilis [8]): < 0.125 µg/mL
- MIC (Pseudomonas aeruginosa [16]): < 0.125 µg/mL
- MIC (Escherichia coli [21]): 128 µg/mL (≈ 174 µM)

Compound: NC[C@H]1O[C@H](O[C@H]2[C@H](O)[C@@H](O[C@H]3O[C@H](CO)[C@@H](O)[C@H](N)[C@H]3O)[C@H](N)C[C@@H]2N)[C@H](O)[C@@H](O)[C@@H]1O [KANAMYCIN]
- MIC (Bacillus subtilis [8]): > 256 µg/mL
- MIC (Pseudomonas aeruginosa [16]): 2 µg/mL (≈ 4.13 µM)
- MIC (Escherichia coli [21]): 16 µg/mL (≈ 33 µM)

Compound: CCn1cc(C(=O)O)c(=O)c2ccc(C)nc21 [NALIDIXIC ACID]
- MIC (Bacillus subtilis [8]): 8 µg/mL (≈ 34.4 µM)
- MIC (Pseudomonas aeruginosa [16]): 2 µg/mL (≈ 8.61 µM)
- MIC (Escherichia coli [21]): 16 µg/mL (≈ 68.9 µM)

- MIC (Bacillus subtilis [6]): 80 µg/mL (≈ 142 µM)
- MIC (Bacillus subtilis [8]): 100 µg/mL (≈ 178 µM)
- MIC (Pseudomonas aeruginosa [16]): 128 µg/mL (≈ 227 µM)
- MIC (Escherichia coli [17]): 128 µg/mL (≈ 227 µM)
- MIC (Pseudomonas aeruginosa [20]): 128 µg/mL (≈ 227 µM)
- MIC (Escherichia coli [21]): 128 µg/mL (≈ 227 µM)
Compound: C=CC1=C(C)c2cc3[nH]c(cc4nc(cc5[nH]c(cc1n2)c(C)c5CCC(=O)O)C(CCC(=O)O)=C4C)c(C)c3C=C [PROTOPORPHYRIN]
- Activity (HeLa [1]): Dose-dependent effect
- Activity (HeLa [2]): inactive
- Activity (SH-SY5Y [3]): inactive
- Activity (SH-SY5Y [4]): Active
- Activity (SH-SY5Y [5]): inactive
- Activity (U-87MG ATCC [7]): Active
- Activity (U-87MG ATCC [9]): inactive
- Activity (U-87MG ATCC [10]): Dose-dependent effect
- Activity (SH-SY5Y [11]): inactive
- Activity (HeLa [12]): inactive
- Activity (Pseudomonas aeruginosa [13]): Active
- Activity (Bacillus subtilis [14]): Active
- Activity (HeLa [15]): Active
- Activity (Bacillus subtilis [18]): inactive
- Activity (U-87MG ATCC [19]): inactive
- Activity (SH-SY5Y [22]): Dose-dependent effect
- Activity (U-87MG ATCC [23]): inactive
- Activity (HeLa [24]): inactive

- MIC (Bacillus subtilis [8]): 16 µg/mL (≈ 27.5 µM)
- MIC (Pseudomonas aeruginosa [16]): 64 µg/mL (≈ 110 µM)
- MIC (Escherichia coli [21]): > 256 µg/mL
Compound: CN[C@@H]1[C@H](O[C@H]2[C@H](O[C@H]3[C@H](O)[C@@H](O)[C@H](N=C(N)N)[C@@H](O)[C@@H]3N=C(N)N)O[C@@H](C)[C@]2(O)C=O)O[C@@H](CO)[C@H](O)[C@H]1O [STREPTOMYCIN]

Compound: CN(C)[C@@H]1C(O)=C(C(N)=O)C(=O)[C@@]2(O)C(O)=C3C(=O)c4c(O)cccc4[C@@](C)(O)[C@H]3C[C@@H]12 [TETRACYCLINE]
- MIC (Bacillus subtilis [8]): 8 µg/mL (≈ 18 µM)
- MIC (Pseudomonas aeruginosa [16]): 1 µg/mL (≈ 2.25 µM)
- MIC (Escherichia coli [21]): 2 µg/mL (≈ 4.5 µM)
